Molecular target: T1, Sphingolipid delta(4)-desaturase DES1 (Homo sapiens, UniProt O15121)
T1 sequence (O15121 whole entry): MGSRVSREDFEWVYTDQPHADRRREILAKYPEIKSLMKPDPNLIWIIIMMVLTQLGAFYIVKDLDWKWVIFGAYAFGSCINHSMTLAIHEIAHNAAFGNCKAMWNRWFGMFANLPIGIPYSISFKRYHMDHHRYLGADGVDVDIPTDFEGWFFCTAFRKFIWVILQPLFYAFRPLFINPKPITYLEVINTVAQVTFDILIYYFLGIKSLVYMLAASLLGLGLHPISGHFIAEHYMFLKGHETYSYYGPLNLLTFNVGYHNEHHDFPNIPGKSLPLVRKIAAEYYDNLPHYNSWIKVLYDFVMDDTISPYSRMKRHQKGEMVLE
Experiment: Des1 Activity Assays: Jurkat clone E6-1 cells were grown and then seeded at 10^6 cells/mL in a 96-well plate (400 μL in each well. The cells were administered 100 μL of cell culture media containing 50-μM NBD-C6-dihydroceramide (Des1 substrate), affording a final concentration of substrate of 10 μM. The cells were incubated with substrate at 4° C. for 30 minutes. Following the incubation at 4° C., the cell suspension was centrifuged at 1200 rpm for 3 minutes, and the cell pellet is resuspended in 400 μL of fresh media containing various concentrations of either fenretinide (known Des1 inhibitor control compound) or test article. The final concentrations of control compound and test compounds were tested in a range from 0-10 μM. The cells and compounds were incubated at 37° C. for 3 hours. Following the 3-hour incubation, the plate was centrifuged at 2500 g for 3 minutes at 4° C., followed by collection and transfer of 200 μL of the supernatant to a new 96-well plate with 300 μL of methanol an containing appropriate internal standards for liquid chromatography/tandem mass spectroscopy (LC/MS/MS) analysis (internal standard: 500 nM labetalol and 100 nM alprazolam). The samples were vortexed for 2 minutes followed by centrifugation at 3,220 g for 20 minutes. Following centrifugation, 200 μL of the supernatant was transferred to a new 96-well plate for LC-MS/MS analysis to determine the amount of NBD-C6-ceramide (Des1 product) produced. The assay was typically performed in duplicate. A reduction of at least 30% compared to vehicle control (0 μM test article) is indicative of an active compound, and a reduction of 75% compared to vehicle control is preferred.
Assay type: cell-based

Row | IC50 [µM] | Compound
1 | 0.13 | O=C(Nc1ccc(O)cn1)c1ccc(-c2cccnc2)cc1
2 | 4.5 | O=C(Cc1ccccc1)Nc1ccc(O)cn1
3 | 0.0039 | O=C(CC1CCN(c2ccc(Cl)cn2)CC1)Nc1ccc(O)cn1
